Source: patent USRE48335E1, “Polymyxin derivatives as antimicrobial compounds” (priority 2014, dated 2020)
Converted amounts (≈) assume the structure as drawn. Read-outs that look alike come from different tables or passages of the source. Positions of bridges follow the written chain, without caps; N, C: chain ends. Non-standard residues stand in square brackets, D forms with d. Residues, ends and D or L forms follow the SMILES beside them. *: point of attachment. Benzoyl(4-Ph) = O=C(c1ccc(-c2ccccc2)cc1)*; Lauroyl = CCCCCCCCCCCC(=O)*; Decanoyl = CCCCCCCCCC(=O)*; Heptanoyl = CCCCCCC(=O)*; Octanoyl = CCCCCCCC(=O)*; Orn = NCCC[C@H](N)C(=O)O; Dab = NCC[C@H](N)C(=O)O; Dap = NC[C@H](N)C(=O)O; PhAc = O=C(Cc1ccccc1)*

What was measured:
Acinetobacter baumannii = test system: Acinetobacter baumannii
Experimental: (§1) MICs of the lipopeptides (trifluoroacetic acid salt, TFA) were determined by broth microdilution in cation-adjusted Mueller-Hinton broth (CAMHB) (Oxoid Australia, Thebarton, SA, Australia) according to Clinical and Laboratory Standards Institute standards (Clinical and Laboratory Standards Institute. Performance standards for antimicrobial susceptibility testing; eighteenth informational supplement M100-S18. Wayne, Pa., 2008). Polymyxin B (sulphate) was employed as control. […]

Enterobacter cloacae = test system: Enterobacter cloacae
Experimental: as §1

Pseudomonas aeruginosa = test system: Pseudomonas aeruginosa
Experimental: as §1

## CCCCCCCCCC(=O)N[C@@H](CCN)C(=O)N[C@H](C(=O)N[C@H](CO)C(=O)N[C@H]1CCNC(=O)[C@H]([C@@H](C)O)NC(=O)[C@H](CCN)NC(=O)[C@H](CCN)NC(=O)[C@H]([C@@H](C)O)NC(=O)[C@@H](CC(C)C)NC(=O)[C@H](CCN)NC1=O)[C@@H](C)O [Compound 9] (Decanoyl-[Dab]T[dS][Dab][Dab][dL]T[Dab][Dab]T; lactam 4-C)
Acinetobacter baumannii
  Minimum inhibitory concentration, Ab A ATCC 17978: 1 µg/mL (≈ 0.863 µM)
  Minimum inhibitory concentration, Ab ATCC 19606: 0.25 µg/mL (≈ 0.216 µM)
  Minimum inhibitory concentration, Ab FADDI-AB034: 0.5 µg/mL (≈ 0.432 µM)
Enterobacter cloacae
  Minimum inhibitory concentration, Ec FADDI-EC001: 0.5 µg/mL (≈ 0.432 µM)
  Minimum inhibitory concentration, Ec FADDI-EC003: 1 µg/mL (≈ 0.863 µM)
  Minimum inhibitory concentration, Ec FADDI-EC006: 1 µg/mL (≈ 0.863 µM)
Pseudomonas aeruginosa
  Minimum inhibitory concentration, Pa ATCC 27853: 4 µg/mL (≈ 3.45 µM)
  Minimum inhibitory concentration, Pa FADDI-PA022: 8 µg/mL (≈ 6.91 µM)
  Minimum inhibitory concentration, Pa FADDI-PA025: 32 µg/mL (≈ 27.6 µM)

## CCCCCCCCCCCC(=O)N[C@@H](CCN)C(=O)N[C@H](C(=O)N[C@H](CO)C(=O)N[C@H]1CCNC(=O)[C@H]([C@@H](C)O)NC(=O)[C@H](CCN)NC(=O)[C@H](CCN)NC(=O)[C@H]([C@@H](C)O)NC(=O)[C@@H](CC(C)C)NC(=O)[C@H](CCN)NC1=O)[C@@H](C)O [Compound 10] (Lauroyl-[Dab]T[dS][Dab][Dab][dL]T[Dab][Dab]T; lactam 4-C)
Acinetobacter baumannii
  Minimum inhibitory concentration, Ab A ATCC 17978: 0.5 µg/mL (≈ 0.421 µM)
  Minimum inhibitory concentration, Ab ATCC 19606: 1 µg/mL (≈ 0.843 µM)
  Minimum inhibitory concentration, Ab FADDI-AB034: 1 µg/mL (≈ 0.843 µM)
Enterobacter cloacae
  Minimum inhibitory concentration, Ec FADDI-EC001: 1 µg/mL (≈ 0.843 µM)
  Minimum inhibitory concentration, Ec FADDI-EC003: 0.5 µg/mL (≈ 0.421 µM)
  Minimum inhibitory concentration, Ec FADDI-EC006: 1 µg/mL (≈ 0.843 µM)
Pseudomonas aeruginosa
  Minimum inhibitory concentration, Pa ATCC 27853: 2 µg/mL (≈ 1.69 µM)
  Minimum inhibitory concentration, Pa FADDI-PA022: 4 µg/mL (≈ 3.37 µM)
  Minimum inhibitory concentration, Pa FADDI-PA025: 4 µg/mL (≈ 3.37 µM)

## CC(C)C[C@H]1NC(=O)[C@H](CCN)NC(=O)[C@@H](NC(=O)[C@@H](CO)NC(=O)[C@@H](NC(=O)[C@H](CCN)NC(=O)c2ccc(-c3ccccc3)cc2)[C@@H](C)O)CCNC(=O)[C@H]([C@@H](C)O)NC(=O)[C@H](CCN)NC(=O)[C@H](CCN)NC(=O)[C@H]([C@@H](C)O)NC1=O [Compound 11] ({Benzoyl(4-Ph)}-[Dab]T[dS][Dab][Dab][dL]T[Dab][Dab]T; lactam 4-C)
Acinetobacter baumannii
  Minimum inhibitory concentration, Ab A ATCC 17978: 0.5 µg/mL (≈ 0.422 µM)
  Minimum inhibitory concentration, Ab ATCC 19606: 2 µg/mL (≈ 1.69 µM)
  Minimum inhibitory concentration, Ab FADDI-AB034: 1 µg/mL (≈ 0.844 µM)
Enterobacter cloacae
  Minimum inhibitory concentration, Ec FADDI-EC001: 0.5 µg/mL (≈ 0.422 µM)
  Minimum inhibitory concentration, Ec FADDI-EC003: 0.5 µg/mL (≈ 0.422 µM)
  Minimum inhibitory concentration, Ec FADDI-EC006: 0.5 µg/mL (≈ 0.422 µM)
Pseudomonas aeruginosa
  Minimum inhibitory concentration, Pa ATCC 27853: 4 µg/mL (≈ 3.38 µM)
  Minimum inhibitory concentration, Pa FADDI-PA022: 4 µg/mL (≈ 3.38 µM)
  Minimum inhibitory concentration, Pa FADDI-PA025: 32 µg/mL (≈ 27 µM)

## CC(C)C[C@H]1NC(=O)[C@H](CCN)NC(=O)[C@@H](NC(=O)[C@@H](CO)NC(=O)[C@@H](NC(=O)[C@H](CCN)NC(=O)Cc2ccccc2)[C@@H](C)O)CCNC(=O)[C@H]([C@@H](C)O)NC(=O)[C@H](CCN)NC(=O)[C@H](CCN)NC(=O)[C@H]([C@@H](C)O)NC1=O [Compound 12] (PhAc-[Dab]T[dS][Dab][Dab][dL]T[Dab][Dab]T; lactam 4-C)
Acinetobacter baumannii; Acinetobacter baumannii ATCC 17978, broth microdilution in CAMHB
  Minimum inhibitory concentration, Ab A ATCC 17978: 4 µg/mL (≈ 3.56 µM)
Acinetobacter baumannii; Acinetobacter baumannii ATCC 19606, broth microdilution in CAMHB
  Minimum inhibitory concentration, Ab ATCC 19606: 4 µg/mL (≈ 3.56 µM)
Acinetobacter baumannii; Acinetobacter baumannii FADDI-AB034, broth microdilution in CAMHB
  Minimum inhibitory concentration, Ab FADDI-AB034: 4 µg/mL (≈ 3.56 µM)
Enterobacter cloacae; Enterobacter cloacae FADDI-EC001, broth microdilution in CAMHB
  Minimum inhibitory concentration, Ec FADDI-EC001: 0.25 µg/mL (≈ 0.223 µM)
Enterobacter cloacae; Enterobacter cloacae FADDI-EC003, broth microdilution in CAMHB
  Minimum inhibitory concentration, Ec FADDI-EC003: 0.5 µg/mL (≈ 0.446 µM)
Enterobacter cloacae; Enterobacter cloacae FADDI-EC006, broth microdilution in CAMHB
  Minimum inhibitory concentration, Ec FADDI-EC006: 1 µg/mL (≈ 0.891 µM)
Pseudomonas aeruginosa; Pseudomonas aeruginosa ATCC 27853, broth microdilution in CAMHB
  Minimum inhibitory concentration, Pa ATCC 27853: >32 µg/mL
Pseudomonas aeruginosa; Pseudomonas aeruginosa FADDI-PA022, broth microdilution in CAMHB
  Minimum inhibitory concentration, Pa FADDI-PA022: 8 µg/mL (≈ 7.13 µM)
Pseudomonas aeruginosa; Pseudomonas aeruginosa FADDI-PA025, broth microdilution in CAMHB
  Minimum inhibitory concentration, Pa FADDI-PA025: >32 µg/mL

## CCCCCCCC(=O)N[C@@H](CN)C(=O)N[C@H](C(=O)N[C@H](CO)C(=O)N[C@H]1CCNC(=O)[C@H]([C@@H](C)O)NC(=O)[C@H](CCN)NC(=O)[C@H](CCN)NC(=O)[C@H]([C@@H](C)O)NC(=O)[C@@H](CC(C)C)NC(=O)[C@H](CCN)NC1=O)[C@@H](C)O [Compound 13] (Octanoyl-[Dap]T[dS][Dab][Dab][dL]T[Dab][Dab]T; lactam 4-C)
Acinetobacter baumannii
  Minimum inhibitory concentration, Ab A ATCC 17978: 1 µg/mL (≈ 0.896 µM)
  Minimum inhibitory concentration, Ab ATCC 19606: 1 µg/mL (≈ 0.896 µM)
  Minimum inhibitory concentration, Ab FADDI-AB034: 0.5 µg/mL (≈ 0.448 µM)
Enterobacter cloacae
  Minimum inhibitory concentration, Ec FADDI-EC001: 0.25 µg/mL (≈ 0.224 µM)
  Minimum inhibitory concentration, Ec FADDI-EC003: 0.25 µg/mL (≈ 0.224 µM)
  Minimum inhibitory concentration, Ec FADDI-EC006: 0.5 µg/mL (≈ 0.448 µM)
Pseudomonas aeruginosa
  Minimum inhibitory concentration, Pa ATCC 27853: 4 µg/mL (≈ 3.58 µM)
  Minimum inhibitory concentration, Pa FADDI-PA022: 4 µg/mL (≈ 3.58 µM)
  Minimum inhibitory concentration, Pa FADDI-PA025: >32 µg/mL

## CCCCCCCC(=O)N[C@@H](CCCN)C(=O)N[C@H](C(=O)N[C@H](CO)C(=O)N[C@H]1CCNC(=O)[C@H]([C@@H](C)O)NC(=O)[C@H](CCN)NC(=O)[C@H](CCN)NC(=O)[C@H]([C@@H](C)O)NC(=O)[C@@H](CC(C)C)NC(=O)[C@H](CCN)NC1=O)[C@@H](C)O [Compound 14] (Octanoyl-[Orn]T[dS][Dab][Dab][dL]T[Dab][Dab]T; lactam 4-C)
Acinetobacter baumannii
  Minimum inhibitory concentration, Ab A ATCC 17978: 8 µg/mL (≈ 6.99 µM)
  Minimum inhibitory concentration, Ab ATCC 19606: 16 µg/mL (≈ 14 µM)
  Minimum inhibitory concentration, Ab FADDI-AB034: 4 µg/mL (≈ 3.5 µM)
Enterobacter cloacae
  Minimum inhibitory concentration, Ec FADDI-EC001: 0.25 µg/mL (≈ 0.218 µM)
  Minimum inhibitory concentration, Ec FADDI-EC003: 0.5 µg/mL (≈ 0.437 µM)
  Minimum inhibitory concentration, Ec FADDI-EC006: 4 µg/mL (≈ 3.5 µM)
Pseudomonas aeruginosa
  Minimum inhibitory concentration, Pa ATCC 27853: >32 µg/mL
  Minimum inhibitory concentration, Pa FADDI-PA022: 8 µg/mL (≈ 6.99 µM)
  Minimum inhibitory concentration, Pa FADDI-PA025: >32 µg/mL

## CCCCCCCC(=O)N[C@@H](CCN)C(=O)N[C@H](C(=O)N[C@@H](C(=O)N[C@H]1CCNC(=O)[C@H]([C@@H](C)O)NC(=O)[C@H](CCN)NC(=O)[C@H](CCN)NC(=O)[C@H]([C@@H](C)O)NC(=O)[C@@H](CC(C)C)NC(=O)[C@H](CCN)NC1=O)[C@H](C)O)[C@@H](C)O [Compound 15] (Octanoyl-[Dab]T[dT][Dab][Dab][dL]T[Dab][Dab]T; lactam 4-C)
Acinetobacter baumannii
  Minimum inhibitory concentration, Ab A ATCC 17978: 0.5 µg/mL (≈ 0.437 µM)
  Minimum inhibitory concentration, Ab ATCC 19606: 2 µg/mL (≈ 1.75 µM)
  Minimum inhibitory concentration, Ab FADDI-AB034: 1 µg/mL (≈ 0.874 µM)
Enterobacter cloacae
  Minimum inhibitory concentration, Ec FADDI-EC001: 1 µg/mL (≈ 0.874 µM)
  Minimum inhibitory concentration, Ec FADDI-EC003: 2 µg/mL (≈ 1.75 µM)
  Minimum inhibitory concentration, Ec FADDI-EC006: 1 µg/mL (≈ 0.874 µM)
Pseudomonas aeruginosa
  Minimum inhibitory concentration, Pa ATCC 27853: 16 µg/mL (≈ 14 µM)
  Minimum inhibitory concentration, Pa FADDI-PA022: 16 µg/mL (≈ 14 µM)
  Minimum inhibitory concentration, Pa FADDI-PA025: >32 µg/mL

## CCCCCCC(=O)N[C@@H](CCN)C(=O)N[C@H](C(=O)N[C@H](CO)C(=O)N[C@H]1CCNC(=O)[C@H]([C@@H](C)O)NC(=O)[C@H](CCN)NC(=O)[C@H](CCN)NC(=O)[C@H]([C@@H](C)O)NC(=O)[C@@H](CC(C)C)NC(=O)[C@H](CCN)NC1=O)[C@@H](C)O [Compound 16] (Heptanoyl-[Dab]T[dS][Dab][Dab][dL]T[Dab][Dab]T; lactam 4-C)
Acinetobacter baumannii
  Minimum inhibitory concentration, Ab A ATCC 17978: 0.5 µg/mL (≈ 0.448 µM)
  Minimum inhibitory concentration, Ab ATCC 19606: 2 µg/mL (≈ 1.79 µM)
  Minimum inhibitory concentration, Ab FADDI-AB034: 2 µg/mL (≈ 1.79 µM)
Enterobacter cloacae
  Minimum inhibitory concentration, Ec FADDI-EC001: 0.5 µg/mL (≈ 0.448 µM)
  Minimum inhibitory concentration, Ec FADDI-EC003: 0.25 µg/mL (≈ 0.224 µM)
  Minimum inhibitory concentration, Ec FADDI-EC006: 0.25 µg/mL (≈ 0.224 µM)
Pseudomonas aeruginosa
  Minimum inhibitory concentration, Pa ATCC 27853: 4 µg/mL (≈ 3.58 µM)
  Minimum inhibitory concentration, Pa FADDI-PA022: 4 µg/mL (≈ 3.58 µM)
  Minimum inhibitory concentration, Pa FADDI-PA025: >32 µg/mL
